Assay results published in US7122523B2, “Methods for inhibiting tumor cell proliferation” (University of Southern California, priority 2001, dated 2006).
“Also recorded” adds a separate entry of the source.

Experiment: Test of effectiveness of AII fragments (test not specified)
Conditions: repeated tests

In the case of Tyr-Ile-His-Pro-Phe (YIHPF) [AII(4-8)], the “effectiveness as active agent” value is reported as “not to be effective; also recorded: ineffective”.
